# From patent US4975372A, “Microbial transformation product of L-683,590” (Merck & Co., Inc., priority 1989, dated 1990)
# Several values for one entry are separate records, joined by “and”; a condition that tells them apart may be missing. Equal values may be shown once. Entries after “also recorded” stand apart in the source; their conditions may differ. Read-outs that look alike come from different tables or passages of the source.
# Columns and labels:
# [1] = reputed; EPO Publication No. 0184162; cited from earlier work
# [2] = Solubility (physical characteristics); type: physicochemical; conditions: methanol
# [3] = test system: mouse T lymphocytes; experiment: T-cell proliferation assay (ionomycin plus PMA induced, tritiated thymidine uptake); type: cell-based, mouse (C57B1/6)
# Procedure: The principle of this assay is to measure the proliferation of mouse T lymphocytes stimulated with the combination of ionomycin plus PMA. A positive sample in this assay will inhibit T-cell proliferation, as indicated by reduced tritiated thymidine uptake.
# Purified L-685,487, as prepared by HPLC above, was dissolved in absolute ethanol at 1 mg/ml.
# Spleens from C57B1/6 mice were taken under sterile conditions and gently dissociated in ice-cold RPMI 1640 culture medium (GIBCO, Grand Island, N.Y.) supplemented with 10% heat-inactivated fetal calf serum (GIBCO). Cells were pelleted by centrifugation at 1500 rpm for 8 minutes. Contaminating red cells were removed by treating the pellet with ammonium chloride lysing buffer (GIBCO) for 2 minutes at 4° C. Cold medium was added and cells were again centrifuged at 1500 rpm. for 8 minutes. T lymphocytes were then isolated by separation of the cell suspension on nylon wool columns as follows: Nylon wool columns were prepared by packing approximately 4 grams of washed and dried nylon wool into 20 ml plastic syringes. The columns were sterilized by autoclaving at 250° F. for 30 minutes. Nylon wool columns were wetted with warm (37° C.) culture medium and rinsed with the same medium. Washed spleen cells resuspended in warm medium were slowly applied to the nylon wool. The columns were then incubated in an upright position at 37° C. for 1 hour. Non-adherent T lymphocytes were eluted from the columns with warm culture medium and the cell suspensions were spun as above.
# Purified T lymphocytes were resuspended at 2.5×10^5 cells/ml in complete culture medium composed of RPMI 1640 medium with 10% heat-inactivated fetal calf serum, […] glutamine, 1 mM sodium pyruvate, 2×10^-5 M 2-mercaptoethanol and 50 μg/ml gentamycin. Ionomycin was added at 250 ng/ml and PMA at 10 ng/ml. The cell suspension was immediately distributed into 96 well flat-bottom microculture plates (Costar) at 200 μl/well. The control, being the medium without test drug, and various below-indicated dilutions of the sample (above-describedpurified L-683,756) to be tested were then added in triplicate wells at 20 μl/well. L-679,934 was used as a standard. The culture plates were then incubated at 37° C. in a humidified atmosphere of 5% CO2 -95% air for 44 hours. The proliferation of T lymphocytes was assessed by measurement of tritiated thymidine incorporation. After 44 hours of culturing, the cells were pulse-labelled with 2 μ Ci/well of tritiated thymidine (NEN, Cambridge, Mass.). After another 4 hours of incubation, cultures were harvested on glass fiber filters using a multiple sample harvester. Radioactivity of filter discs corresponding to individual wells was measured by standard liquid scintillation counting methods (Betacounter). Mean counts per minute of replicate wells were calculated and the results expressed as percent inhibition of tritiated thymidine uptake (proliferation) as follows: [formula]
compound,measurement,setting,value
C=CC[C@@H]1/C=C(\C)C[C@H](C)C[C@H](OC)[C@H]2O[C@@](O)(C(=O)C(=O)N3CCCC[C@H]3C(=O)O[C@H](/C(C)=C/[C@@H]3CC[C@@H](O)[C@H](OC)C3)[C@H](C)[C@@H](O)CC1=O)[C@H](C)C[C@@H]2OC [FK-506],effectiveness relative to cyclosporin,[1],100 times
"CC[C@@H]1/C=C(\C)CC(C)C[C@H](OC)C(O)[C@@H]2CC(C)C(O)(O2)C(=O)C(=O)N2CCCC[C@H]2C(=O)O[C@H](/C(C)=C/[C@@H]2CC[C@@H](O)C(OC)C2)[C@H](C)C(O)CC1=O (stereo partly drawn) [L-685,487]",Solubility,[2],Solubility in methanol
same,inhibition at 0.00058 µg/mL,"[3]; Mus musculus, T-lymphocyte, 0.58 ng/ml",0%
same,inhibition at 0.00087 µg/mL,"[3]; Mus musculus, T-lymphocyte, 0.87 ng/ml",0%
same,inhibition at 0.0013 µg/mL,"[3]; Mus musculus, T-lymphocyte, 1.3 ng/ml",9%
same,inhibition at 0.0019 µg/mL,"[3]; Mus musculus, T-lymphocyte, 1.9 ng/ml",10%
same,inhibition at 0.0029 µg/mL,"[3]; Mus musculus, T-lymphocyte, 2.9 ng/ml",10%
same,inhibition at 0.0044 µg/mL,"[3]; Mus musculus, T-lymphocyte, 4.4 ng/ml",39%
same,inhibition at 0.0066 µg/mL,"[3]; Mus musculus, T-lymphocyte, 6.6 ng/ml",71%
same,inhibition at 0.0099 µg/mL,"[3]; Mus musculus, T-lymphocyte, 9.9 ng/ml",88%
same,inhibition at 0.015 µg/mL,"[3]; Mus musculus, T-lymphocyte, 15.0 ng/ml",92%
same,inhibition at 0.022 µg/mL,"[3]; Mus musculus, T-lymphocyte, 22.0 ng/ml",98%
same,inhibition at 0.033 µg/mL,"[3]; Mus musculus, T-lymphocyte, 33.0 ng/ml",99%
same,inhibition at 0.05 µg/mL,"[3]; Mus musculus, T-lymphocyte, 50.0 ng/ml",99%
same,IC50,"[3]; Mus musculus, T-lymphocyte, T-cell proliferation, 3H-thymidine pulse 4 hours, harvest at 48 hours, read-out: IC50",0.0049 µg/mL and 6.3 nM
same,IC50,"[3]; Mus musculus, T-lymphocyte, generally in the range, read-out: IC50, general range",6 to 12 nM
same,Inhibition of proliferation upon addition of IL2,[3]; addition of 50 units/m of recombinant human IL2,Inhibition of proliferation was reversed
same,inhibition of T-cell activation (immunosuppressive activity),[3]; qualitative,positive inhibition of T-cell activation; also recorded: positive immunosuppressive activity
"C=CC[C@@H]1/C=C(\C)C[C@H](C)C[C@H](OC)[C@H]2O[C@@](O)(C(=O)C(=O)N3CCCC[C@H]3C(=O)O[C@H](/C(C)=C/[C@@H]3CC[C@@H](O)[C@H](OC)C3)[C@H](C)[C@@H](O)CC1=O)[C@H](C)C[C@@H]2OC.O [L679,934, reference compound]","% inhibition, standard",[3]; 10 ng/ml,99%
